≈ marks a conversion by molar mass, not a printed value.
Key:
[1] = test system: M. pnumoniae Mac; experiment: Anti-mycoplasmal activity (MIC), agar-dilution method; assay type: cell-based, Mycoplasma pneumoniae; settings: Mycoplasma; agar dilution; M. pnumoniae Mac; read-out: MIC
Procedure: (§1) The minimum growth inhibitory concentrations (MIC; μg/ml) of the test chemicals were measured by the agar-dilution method.
(§2) (1) Preparation of a mycoplasma suspension for inoculation
(§3) A stored frozen suspension of mycoplasma (0.2 to 0.3 ml) was inoculated in 2 to 3 ml of a preculture medium to be described later. It was serially diluted tenfold until the dilution ratio reached 10,000 times. These diluted solutions were cultivated at 37° C. for 2 to 7 days. A culture having the highest dilution ratio was selected from those cultures in which a color change of the media was noted as a result of mycoplasma growth. It was diluted to 100 times with the preculture medium to prepare a mycoplasma suspension for inoculation.
(§4) The following preculture media were used.
For Mycoplasma pneumoniae and Acholeplasma laidlawii, Chanock liquid medium containing 0.5% glucose (pH 7.8) [Library of Bacteriology 2, "Procedures for Isolation and Identification of Human, Animal and Plant Mycoplasmas", edited by Japanese Society for Bacteriology, page 8 (1982), Saikon Publishing Co.] was used.
(§5) (2) Preparation of agar plates containing the test chemicals
(§6) A 1,000 μg/ml aqueous solution of each test chemical was prepared (a difficultly-soluble chemical was dissolved by adding an equimolar amount of sodium hydroxide; the same applies hereinafter). The solution was used as a base solution and its twofold serial dilutions were prepared. The diluted solutions were pipetted on plastic petri dishes each in an amount of 1 ml. The Chanock agar medium (for Mycoplasma hyorhinis, 0.5% mucin was further added) described at page 9 of the above cited "Procedures for Isolation and Identification of Human, Animal and Plant Mycoplasmas" was heated and kept at 55° C. and put in an amount of 9 ml in each of the petri dishes containing the test chemicals and fully mixed with the test chemicals to prepare agar plates containing the test chemicals.
(§7) The mycoplasma suspension for inoculation prepared by the procedure described in section (1) was inoculated in an amount of about 3 microliters on each of the chemical-containing agar plates by means of a Cathra-replicator (3 mm pin). The plates on which Mycoplasma pneumoniae, Mycoplasma arginini, and Acholeplasma laidlawii and Mycoplasma hyorhinis were inoculated were tightly packed in a plastic bag together with the plasic petri dishes including water-immersed absorbent cotton. Mycoplasma pneumoniae was aerobically cultivated at 37° C. under highly humid conditions for 7 days; and Mycoplasma arginini and Acholeplasma laidlawii, for 2 days. The other mycoplasma species were cultivated anaerobically for 2 days by using a GasPak anaerobic system (BBL). After the cultivation, growth of mycoplasma were observed under an OLYMPUS microscope (20-100 X). The lowest concentration of the test chemical at which no growth of mycoplasma was noted is defined as MIC.

[2] = test system: M. orale CH19299; experiment: as above; assay type: cell-based, Mycoplasma orale; settings: Metamycoplasma orale; agar dilution; M. orale CH19299; read-out: MIC
Procedure: as §1, §2, §3, §4
For other mycoplasma species, Chanock liquid medium (pH 6.8) containing 0.2% arginine was used.
as §5, §6, §7

[3] = test system: A. laidlawii PG-8; experiment: Anti-mycoplasmal activity (MIC, MMC), liquid dilution method; assay type: cell-based; settings: Acholeplasma laidlawii, liquid dilution, A. laidlawii PG-8; for MBC: PG8, 120 h, read-out: MMC; for MIC: PG8, read-out: MIC
Procedure: (§8) The minimum growth inhibitory concentration (MIC, μg/ml) and minimum mycoplasmacidal concentration (MMC, μg/ml) of test chemicals were measured by the liquid dilution method. The method of measuring MIC in this example differs from that used in Test Example 1.
(§9) A 1,000 μg/ml aqueous solution of a test chemical was prepared, and diluted to 5 times with a preculture medium. The dilution (200 μg/ml) was serially diluted twofold with the same medium in a 8-well reservoir. Fifty microliters of each diluted solution was distributed in the wells of a microplate. A well to which no test chemical was added was used as a control.
(§10) A mycoplasma suspension for inoculation prepared as in Test Example 1 was pipetted in an amount of 50 microliters to each of the wells. The microplates were sealed by a plate seal, shaken by a micromixer, and cultivated at 37° C. for 5 days. In the control to which no test chemical was added, color change of the medium by the growth of mycoplasma was observed after two days from the start of the cultivation. At this time, 3 microliters of the liquid culture was inoculated in drug-free Chanock agar medium by using a Cathra-replicator. The liquid culture and the agar medium were further cultivated at 37° C. for 3 days (anaerobically in the case of M. orale, and aerobically in the case of A. laidlawii and M. arginini). MIC and MMC were determined from the results of observation on the 5th day. MIC was defined as the lowest concentration of the test chemical at which growth of mycoplasma in the drug-containing liquid medium was not noted, and MMC, as that in the drug-free agar medium.

[4] = test system: M. arginini G-230; experiment: as above; assay type: cell-based, Mycoplasma arginini; settings: Mycoplasmopsis arginini, liquid dilution, M. arginini G-230; for MBC: G230, 120 h, read-out: MMC; for MIC: G230, read-out: MIC
Procedure: as §8, §9, §10

[5] = test system: mycoplasma; experiment: Anti-mycoplasmal activity (MIC, MMC), liquid dilution method, all species of Table 2 together; assay type: cell-based; settings: in words
Procedure: as §8, §9
as §10, with “In the control to which no test chemical was added, color change of the medium by the growth of mycoplasma was observed after two days from the start of the cultivation.” left out

Row | Structure (SMILES) | MIC [1] [µg/mL] | MIC [2] [µg/mL] | MBC [3] [µg/mL] | MIC [3] [µg/mL] | MBC [4] [µg/mL] | MIC [4] [µg/mL] | MIC compared with MMC ([5]; Table 2) | mode of action at the MIC ([5]; Table 2) | anti-mycoplasmal activity compared with control compounds ([5]; Table 2) | mycoplasmacidal activity, overall ([5]; summary)
1 | CC1CN(c2c(F)c(N)c3c(=O)c(C(=O)O)cn(C4CC4)c3c2F)CCN1 (stereo not shown) [Compound 1] | 0.025 (≈ 0.0661 µM) | 0.2 (≈ 0.529 µM) | 0.2 (≈ 0.529 µM) | 0.2 (≈ 0.529 µM) | 0.1 (≈ 0.264 µM) | 0.1 (≈ 0.264 µM) | identical with their MMC values | act mycoplasmacidally at the MICs |  | 
2 | CN(C)c1ccc(O)c2c1C[C@H]1C[C@H]3[C@H](N(C)C)C(O)=C(C(N)=O)C(=O)[C@@]3(O)C(O)=C1C2=O [Compound 3, minocycline] | 0.78 (≈ 1.7 µM) | 0.1 (≈ 0.219 µM) | > 100 | 0.2 (≈ 0.437 µM) | > 100 | 0.39 (≈ 0.852 µM) |  | acts bacteriostatically, and not mycoplasmacidally, at its MIC |  | 
3 | NCC1CN(c2c(F)c(N)c3c(=O)c(C(=O)O)cn(C4CC4)c3c2F)CCO1 (stereo not shown) [Compound A, 5-amino-7-(2-aminomethylmorpholino)-1-cyclopropyl-6,8-difluoro-1,4-dihydro-4-oxoquinoline-3-carboxylic acid] | 0.0125 (≈ 0.0317 µM) | 0.05 (≈ 0.127 µM) | 0.0125 (≈ 0.0317 µM) | 0.0125 (≈ 0.0317 µM) | 0.05 (≈ 0.127 µM) | 0.05 (≈ 0.127 µM) | identical with their MMC values | act mycoplasmacidally at the MICs | better than those of the control compounds | excellent mycoplasmacidal activity
